For this test, the system named is PKC mediated IL-2 production. In words: IL-2 ELISA, human primary T cell, anti CD3+CD28+. Particulars: Homo sapiens, T-cell, 24 h, human primary T cells stimulated with αCD3 and αCD28, 24 hours. The class given is cell-based. The method, boiled down:
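IL-2 was quantified by ELISA in 24 h supernatants from primary human T cells given a 1 h compound pre-treatment at 37° C. These cells had been expanded from blood mononuclear cells on αCD3/αCD28 with IL-2, and the IL-2 was removed by washing. Stimulation used plate-bound αCD3 ([…]) plus αCD28 (5 μg/ml); the counter assay used PMA (0.5 ng/ml) with ionomycin (0.1 uM) instead.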
Background: ELISA stands for enzyme-linked immunosorbent assay.

Each structure is given as a SMILES string.

The source of these data is patent US9682976B2, “Protein kinase C inhibitors and uses thereof” (Rigel Pharmaceuticals, Inc., priority 2012, dated 2017).

`CC1(C)Oc2ccc(Nc3ncc(F)c(N[C@@H]4C[C@@H]5CCCN5C(C)(C)C4)n3)cc2O1` [Compound 157, N2-(2,2-dimethylbenzo[d][1,3]dioxol-5-yl)-N4-((7R,8aS)-5,5-dimethyloctahydroindolizin-7-yl)-5-fluoropyrimidine-2,4-diamine]: the EC50 (commonly the concentration at which the effect is half-maximal) lay in the range of 1000 to 10000 nM.

With `COCCOc1cc(F)c(Nc2ncc(F)c(N[C@@H]3C[C@@H]4CCCN4C(C)(C)C3)n2)cc1-n1nnn(C)c1=O` [Compound 158, 1-(5-((4-(((7R,8aS)-5,5-dimethyloctahydroindolizin-7-yl)amino)-5-fluoropyrimidin-2-yl)amino)-4-fluoro-2-(2-methoxyethoxy)phenyl)-4-methyl-1,4-dihydro-5H-tetrazol-5-one], the EC50 is 100 to 500 nM.

The molecule `Cn1nnn(-c2cc(Nc3ncc(F)c(N[C@@H]4C[C@@H]5CCCN5C(C)(C)C4)n3)c(F)cc2OCC2(C)COC2)c1=O` [Compound 159, 1-(5-((4-(((7R,8aS)-5,5-dimethyloctahydroindolizin-7-yl)amino)-5-fluoropyrimidin-2-yl)amino)-4-fluoro-2-((3-methyloxetan-3-yl)methoxy)phenyl)-4-methyl-1,4-dihydro-5H-tetrazol-5-one] had a concentration giving a half-maximal response (EC50) of 100 to 500 nM.

Molecule `COCCOc1ccc(Nc2ncc(F)c(N[C@@H]3C[C@@H]4CCCN4C(C)(C)C3)n2)c(F)c1OCCOC` [Compound 160, N4-((7R,8aS)-5,5-dimethyloctahydroindolizin-7-yl)-5-fluoro-N2-(2-fluoro-3,4-bis(2-methoxyethoxy)phenyl)pyrimidine-2,4-diamine] showed a half-maximal effective concentration (EC50) of 1000 to 10000 nM.

`COc1cc(Nc2ncc(F)c(N[C@@H]3C[C@@H]4CCCN4C(C)(C)C3)n2)cc(OC)c1` [Compound 161, N2-(3,5-dimethoxyphenyl)-N4-((7R,8aS)-5,5-dimethyloctahydroindolizin-7-yl)-5-fluoropyrimidine-2,4-diamine] showed a concentration giving a half-maximal response (EC50) of 500 to 1000 nM.

The molecule `COc1cc(Nc2ncc(Cl)c(N[C@@H]3C[C@@H]4CCCN4C(C)(C)C3)n2)cc(OC)c1` [Compound 162, 5-chloro-N2-(3,5-dimethoxyphenyl)-N4-((7R,8aS)-5,5-dimethyloctahydroindolizin-7-yl)pyrimidine-2,4-diamine] had a half-maximal effective concentration (EC50) of 100 to 500 nM.

With `CC1(C)C[C@H](Nc2nc(Nc3ccc(F)c(-n4nnnc4C4CC4)c3)ncc2Cl)C[C@@H]2CCCN21` [Compound 163, 5-chloro-N2-(3-(5-cyclopropyl-1H-tetrazol-1-yl)-4-fluorophenyl)-N4-((7R,8aS)-5,5-dimethyloctahydroindolizin-7-yl)pyrimidine-2,4-diamine], the EC50 was less than 100 nM.

The molecule `CC1(C)C[C@H](Nc2nc(Nc3cc(-n4nnnc4C4CC4)ccc3F)ncc2Cl)C[C@@H]2CCCN21` [Compound 164, 5-chloro-N2-(5-(5-cyclopropyl-1H-tetrazol-1-yl)-2-fluorophenyl)-N4-((7R,8aS)-5,5-dimethyloctahydroindolizin-7-yl)pyrimidine-2,4-diamine] returned an EC50 of less than 100 nM.

`Cn1nnn(-c2cc(Nc3ncc(F)c(N[C@@H]4C[C@@H]5CCCN5C(C)(C)C4)n3)c(F)cc2OCC2(CO)COC2)c1=O` [Compound 165, 1-(5-((4-(((7R,8aS)-5,5-dimethyloctahydroindolizin-7-yl)amino)-5-fluoropyrimidin-2-yl)amino)-4-fluoro-2-((3-(hydroxymethyl)oxetan-3-yl)methoxy)phenyl)-4-methyl-1,4-dihydro-5H-tetrazol-5-one] came in with an EC50 of 500 to 1000 nM.

`Cn1nnn(-c2cc(Nc3ncc(F)c(N[C@@H]4C[C@@H]5CCCN5C(C)(C)C4)n3)c(F)cc2OCC2COC2)c1=O` [Compound 166, 1-(5-((4-(((7R,8aS)-5,5-dimethyloctahydroindolizin-7-yl)amino)-5-fluoropyrimidin-2-yl)amino)-4-fluoro-2-(oxetan-3-ylmethoxy)phenyl)-4-methyl-1,4-dihydro-5H-tetrazol-5-one] displayed an EC50 of 100 to 500 nM.

On to `Cn1nnn(-c2cc(Nc3ncc(F)c(N[C@@H]4C[C@@H]5CCCN5C(C)(C)C4)n3)c(F)cc2OCC2CCO2)c1=O` (stereo partly drawn) [Compound 167, 1-(5-((4-(((7R,8aS)-5,5-dimethyloctahydroindolizin-7-yl)amino)-5-fluoropyrimidin-2-yl)amino)-4-fluoro-2-(oxetan-2-ylmethoxy)phenyl)-4-methyl-1,4-dihydro-5H-tetrazol-5-one], for which the half-maximal effective concentration (EC50) was in the range of 100 to 500 nM.

For `CC1(C)C[C@H](Nc2nc(Nc3ccc(O)c(C#N)c3)ncc2F)C[C@@H]2CCCN21` [Compound 168, 5-((4-(((7R,8aS)-5,5-dimethyloctahydroindolizin-7-yl)amino)-5-fluoropyrimidin-2-yl)amino)-2-hydroxybenzonitrile], the concentration giving a half-maximal response (EC50) was in the range of 1000 to 10000 nM.

As for `Cn1nnn(-c2cc(Nc3ncc(F)c(N[C@@H]4C[C@@H]5CCCN5C(C)(C)C4)n3)c(F)cc2OCC2COCCO2)c1=O` (stereo partly drawn) [Compound 169, 1-(2-((1,4-dioxan-2-yl)methoxy)-5-((4-(((7R,8aS)-5,5-dimethyloctahydroindolizin-7-yl)amino)-5-fluoropyrimidin-2-yl)amino)-4-fluorophenyl)-4-methyl-1,4-dihydro-5H-tetrazol-5-one], the EC50 fell in the range of 1000 to 10000 nM.

Take `Cn1nnn(-c2cc(Nc3ncc(F)c(N[C@@H]4C[C@@H]5CCCN5C(C)(C)C4)n3)c(F)cc2OCC2CCOCC2)c1=O` [Compound 170, 1-(5-((4-(((7R,8aS)-5,5-dimethyloctahydroindolizin-7-yl)amino)-5-fluoropyrimidin-2-yl)amino)-4-fluoro-2-((tetrahydro-2H-pyran-4-yl)methoxy)phenyl)-4-methyl-1,4-dihydro-5H-tetrazol-5-one]: the 50% effective concentration (EC50) lay in the range of 100 to 500 nM.

For `Cn1nnn(-c2cc(Nc3ncc(F)c(N[C@@H]4C[C@@H]5CCCN5C(C)(C)C4)n3)c(F)cc2OCC(=O)C(=O)O)c1=O` [Compound 171, 3-(4-((4-(((7R,8aS)-5,5-dimethyloctahydroindolizin-7-yl)amino)-5-fluoropyrimidin-2-yl)amino)-5-fluoro-2-(4-methyl-5-oxo-4,5-dihydro-1H-tetrazol-1-yl)phenoxy)-2-oxopropanoic acid], the EC50 was greater than 10000 nM.

In turn, `COCCOc1ccc(Nc2ncc(F)c(N[C@@H]3C[C@@H]4CCCN4C(C)(C)C3)n2)cc1C#N` [Compound 172, 5-((4-(((7R,8aS)-5,5-dimethyloctahydroindolizin-7-yl)amino)-5-fluoropyrimidin-2-yl)amino)-2-(2-methoxyethoxy)benzonitrile] showed a 50% effective concentration (EC50) of 100 to 500 nM.

In turn, `CC1(COc2ccc(Nc3ncc(F)c(N[C@@H]4C[C@@H]5CCCN5C(C)(C)C4)n3)cc2C#N)COC1` [Compound 173, 5-(4-((7R,8aS)-5,5-dimethyloctahydroindolizin-7-ylamino)-5-fluoropyrimidin-2-ylamino)-2-((3-methyloxetan-3-yl)methoxy)benzonitrile] had a concentration giving a half-maximal response (EC50) of 100 to 500 nM.

Turning to `CC1(C)C[C@H](Nc2nc(Nc3ccc(OCC4(CO)COC4)c(C#N)c3)ncc2F)C[C@@H]2CCCN21` [Compound 174, 5-(4-((7R,8aS)-5,5-dimethyloctahydroindolizin-7-ylamino)-5-fluoropyrimidin-2-ylamino)-2-((3-(hydroxymethyl)oxetan-3-yl)methoxy)benzonitrile], the concentration giving a half-maximal response (EC50) is 500 to 1000 nM.

In turn, `CC1(C)C[C@H](Nc2nc(Nc3ccc(OCC4COC4)c(C#N)c3)ncc2F)C[C@@H]2CCCN21` [Compound 175, 5-(4-((7R,8aS)-5,5-dimethyloctahydroindolizin-7-ylamino)-5-fluoropyrimidin-2-ylamino)-2-(oxetan-3-ylmethoxy)benzonitrile] returned a half-maximal effective concentration (EC50) of 500 to 1000 nM.

`CC1(C)C[C@H](Nc2nc(Nc3ccc(OCC4CCO4)c(C#N)c3)ncc2F)C[C@@H]2CCCN21` (stereo partly drawn) [Compound 176, 5-(4-((7R,8aS)-5,5-dimethyloctahydroindolizin-7-ylamino)-5-fluoropyrimidin-2-ylamino)-2-(oxetan-2-ylmethoxy)benzonitrile] returned an EC50 of 100 to 500 nM.

As for `CC1(C)C[C@H](Nc2nc(Nc3ccc(OCC4COCCO4)c(C#N)c3)ncc2F)C[C@@H]2CCCN21` (stereo partly drawn) [Compound 177, 2-((1,4-dioxan-2-yl)methoxy)-5-(4-((7R,8aS)-5,5-dimethyloctahydroindolizin-7-ylamino)-5-fluoropyrimidin-2-ylamino)benzonitrile], the EC50 was in the range of 100 to 500 nM.

For the molecule `CC1(C)C[C@H](Nc2nc(Nc3ccc(OCC4CCOCC4)c(C#N)c3)ncc2F)C[C@@H]2CCCN21` [Compound 178, 5-(4-((7R,8aS)-5,5-dimethyloctahydroindolizin-7-ylamino)-5-fluoropyrimidin-2-ylamino)-2-((tetrahydro-2H-pyran-4-yl)methoxy)benzonitrile], the EC50 fell in the range of 100 to 500 nM.

`CC1(C)C[C@H](Nc2nc(Nc3ccc(OC4COC4)c(C#N)c3)ncc2F)C[C@@H]2CCCN21` [Compound 179, 5-(4-((7R,8aS)-5,5-dimethyloctahydroindolizin-7-ylamino)-5-fluoropyrimidin-2-ylamino)-2-(oxetan-3-yloxy)benzonitrile] showed a half-maximal effective concentration (EC50) of 100 to 500 nM.

As to `CC1(C)C[C@H](Nc2nc(Nc3ccc(Br)c(C#N)c3)ncc2F)C[C@@H]2CCCN21` [Compound 180, 2-bromo-5-((4-(((7R,8aS)-5,5-dimethyloctahydroindolizin-7-yl)amino)-5-fluoropyrimidin-2-yl)amino)benzonitrile], the half-maximal effective concentration (EC50) fell in the range of 100 to 500 nM.

`CC1(C)C[C@H](Nc2nc(Nc3cc(C#N)c(C4CC4)cc3F)ncc2Cl)C[C@@H]2CCCN21` [Compound 181, 5-((5-chloro-4-(((7R,8aS)-5,5-dimethyloctahydroindolizin-7-yl)amino)pyrimidin-2-yl)amino)-2-cyclopropyl-4-fluorobenzonitrile]: the concentration giving a half-maximal response (EC50) is 100 to 500 nM.

Turning to `CC1(C)C[C@H](Nc2nc(Nc3ccc(Cl)c(-n4nnnc4C4CC4)c3)ncc2Cl)C[C@@H]2CCCN21` [Compound 182, 5-chloro-N2-(4-chloro-3-(5-cyclopropyl-1H-tetrazol-1-yl)phenyl)-N4-((7R,8aS)-5,5-dimethyloctahydroindolizin-7-yl)pyrimidine-2,4-diamine], the 50% effective concentration (EC50) is less than 100 nM.
